The values that follow come from patent publication US20240043435A1, “TYK-2 INHIBITOR” (BEIGENE, LTD., priority 2020, published 2024).

Experiment [1] deals with T1, TYK2-JH2 (aa 575-869, in-house) protein (Homo sapiens, UniProt P29597).
T1 construct: TYK2-JH2 (aa 575-869, in-house) protein; made in house
As to the kind of experiment: TYK2-JH2 biochemical assay (HTRF probe displacement). It is filed as binding. The conditions noted are these: Biochemical assay; read-out: TYK2-JH2 IC50. The method, then:
Assay A: TYK2-JH2 Biochemical Assay
Compounds disclosed herein were tested for blocking of TYK2-JH2 (aa 575-869, in-house) protein with its probe in an assay based on Homogeneous Time Resolved Fluorescence. Compound dilution is done according to the following protocol: (1) Prepare 500× compounds solution in DMSO from 500 uM by 5-fold dilution, total 10 doses were included; (2) Prepare 10× compounds solution in an assay buffer containing 20 mM HEPES, pH 7.5, 10 mM MgCl2, 0.005% BSA, 2 mM DTT, 0.015% Brij-35 by transferring 1 μl serial 500× stock solution into 49 μl assay buffer. […] of 0.2 nM recombinant TYK2-JH2 protein was pre-incubated with 1 μl of 10× serial dilution of compounds at room temperature for 0.5 hour. […] The HTRF signals (ex337 nm, em620 nm/665 nm) were read on BMG PHERAstar FS instrument. The inhibition percentage of TYK2 interaction with its probe in presence of increasing concentrations of compounds was calculated based on the ratio of fluorescence at 615 nm to that at 665 nm. The IC50 for each compound was derived from fitting the data to the four-parameter logistic equation by Dotmatics.

The subject of experiment [2] is JAK2, TYK2/p-STAT4 (Tyr693) activated by IL-12 in NK-92 cell line. As to the kind of experiment: IL-12-JAK2, TYK2/p-STAT4 (Tyr693) inhibition IC50 cellular assay. Particulars: for IC50: NK92, Cellular assay, read-out: pSTAT4/IL-12 IC50; for Selectivity fold (TYK2/JAK2): Cellular assay, pSTAT5/GM-CSF IC50 vs pSTAT4/IL-12 IC50. Type of experiment: cell-based. The source says: Assay C: IL-12-JAK2, TYK2/p-STAT4 (Tyr693) Inhibition IC50 Cellular Assay
To evaluate the inhibition effect of compounds disclosed herein on JAK2, TYK2/p-STAT4 (Tyr693) activated by IL-12 in NK-92 cell line, NK-92 cells were collected and washed 3 times by DPBS and resuspended in MEM-α (GIBCO, Cat #12561056) with 10% FBS (Gibco, Cat #10099, Lot #1891605), without IL-2 (R&D systems, Cat #202-IL), starved overnight. Cells were collected and resuspended in 1640 medium (phenol red free, Gibco, Cat #11835-030) with 0.1% BSA, and 12.5 μl/5×10^4/well cell suspension were seeded to the 96-well plate (Corning, Cat #3799). Then cells were treated with compounds diluted in 0.2% DMSO 1640 medium, at 37° C., 1 h. Dilution is done according to the following protocol: (1) make 500× compounds solution in DMSO from 5 mM by 4-fold dilution, total 8 doses were included; (3) make 2× compounds solution in assay medium by transferring 0.5 μl serial 500× stock solution into 125 μl assay medium; (4) 15 μl of 2× serial solution is added to cells and incubate at 37° C. for 1 h, the final compound conc. is 10000, 2500, 625, 156.25, 39, 9.8, 2.4 and 0.61 nM, respectively. After 1 h, cells were treated with 2.5 μl medium containing IL-12 at 37° C. (R&D systems, Cat #219-IL-005, final conc. 40 ng/ml), 30 min. Following cells were lysed with 7.5 μl lysis buffer at RT, shaking on shaker for 1 h. 10 μL of cell lysate were transferred to a PE 384-well Proxiplate detection plate, and 5 μL of pre-mixed Alphascreen beads were added to each well. Covered the plate with a plate sealer, span 1000 rpm for 1 min, mix, Incubated overnight at room temperature. Read on BMG PheraStar with Alphascreen protocol. IC 50 values were calculated by fitting dependent data to the four-parameter logistic model using dotmatics software. The assay was performed by using AlphaLISA SureFire Ultra p-STAT4 (Tyr693) Assay Kit—High Volume (PE, Cat #ALSU-PST4-A-HV).

The test system of a further experiment is pSTAT5/GM-CSF. As to the kind of experiment: pSTAT5/GM-CSF cellular assay (JAK2 selectivity). Type of experiment: cell-based. The conditions noted are these: for Selectivity fold (TYK2/JAK2): pSTAT5/GM-CSF IC50 over pSTAT4/IL-12 IC50.

A value given as a limit tells only on which side of the number the result lay.

T1 sequence (P29597 575-869): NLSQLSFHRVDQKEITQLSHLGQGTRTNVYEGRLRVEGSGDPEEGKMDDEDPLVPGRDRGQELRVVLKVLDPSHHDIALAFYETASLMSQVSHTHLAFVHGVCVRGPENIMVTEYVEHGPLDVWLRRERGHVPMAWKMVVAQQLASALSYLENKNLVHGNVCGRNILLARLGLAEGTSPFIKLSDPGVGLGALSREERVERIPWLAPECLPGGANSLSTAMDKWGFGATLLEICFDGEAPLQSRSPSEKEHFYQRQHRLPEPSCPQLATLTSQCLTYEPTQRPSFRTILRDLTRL

For the compound `CCOc1cc(Nc2cc(NC(C)=O)ncc2-c2cc(C)n(C)n2)nc(S(C)(=O)=O)c1` [Example N7, N-(5-(1,5-dimethyl-1H-pyrazol-3-yl)-4-((4-ethoxy-6-(methylsulfonyl)pyridin-2-yl)amino)pyridin-2-yl)acetamide], the figures for the IC50 (in experiment [1]; in experiment [2]; in the experiment with pSTAT5/GM-CSF) were 0.024 nM, 1.43 nM and above 10000 nM, respectively. Also, the “Selectivity fold (TYK2/JAK2)” value with pSTAT5/GM-CSF is reported as above 6993 fold.
For `CC(=O)Nc1cc(Nc2cc(OCC(C)C)cc(S(C)(=O)=O)n2)c(-c2ccn(C)n2)cn1` [Example J59, N-(4-((4-isobutoxy-6-(methylsulfonyl)pyridin-2-yl)amino)-5-(1-methyl-1H-pyrazol-3-yl)pyridin-2-yl)acetamide] the same measures were 0.029 nM, 1.31 nM, above 10000 nM and above 7633 fold.
Take `CC(=O)Nc1cc(Nc2cc(OC(C)C)cc(S(C)(=O)=O)n2)c(-c2ccc(C#N)cn2)cn1` [Example A17, N-(5-cyano-4′-((4-isopropoxy-6-(methylsulfonyl)pyridin-2-yl)amino)-[2,3′-bipyridin]-6′-yl)acetamide]: the figures for the IC50 (in experiment [1]; in experiment [2]; in the experiment with pSTAT5/GM-CSF) were 0.028 nM, 1.64 nM and above 10000 nM, respectively. In addition, the “Selectivity fold (TYK2/JAK2)” value in experiment [2] was above 6097 fold.
With `COCCOc1cc(Nc2cc(NC(C)=O)ncc2-c2ccn(C3CC3)n2)nc(S(C)(=O)=O)c1` [Example M4, N-(5-(1-cyclopropyl-1H-pyrazol-3-yl)-4-((4-(2-methoxyethoxy)-6-(methylsulfonyl)pyridin-2-yl)amino)pyridin-2-yl)acetamide], the figures for the IC50 (in experiment [1]; in experiment [2]; with pSTAT5/GM-CSF) were 0.026 nM, 0.681 nM and above 10000 nM, respectively. Also, the “Selectivity fold (TYK2/JAK2)” value with pSTAT5/GM-CSF is given as above 14684 fold.
Regarding `COC(C)COc1cc(Nc2cc(NC(C)=O)ncc2-c2ccc(C(C)(C)O)cn2)nc(S(C)(=O)=O)c1` (stereo not shown) [Example H7, N-(5-(2-hydroxypropan-2-yl)-4′-((4-(2-methoxypropoxy)-6-(methylsulfonyl)pyridin-2-yl)amino)-[2,3′-bipyridin]-6′-yl)acetamide], the IC50 in experiment [1] is 0.046 nM; in experiment [2] it was 1.22 nM; in the experiment with pSTAT5/GM-CSF it was above 10000 nM. Also, the “Selectivity fold (TYK2/JAK2)” value in experiment [2] was above 8196 fold.
For the compound `COCc1ccc(-c2cnc(NC(C)=O)cc2Nc2cc(OC)cc(S(C)(=O)=O)n2)nc1` [Example E7, N-(4′-((4-methoxy-6-(methylsulfonyl)pyridin-2-yl)amino)-5-(methoxymethyl)-[2,3′-bipyridin]-6′-yl)acetamide], the IC50 in experiment [1] was 0.02 nM; in experiment [2], 0.447 nM; with pSTAT5/GM-CSF it was above 10000 nM. Further, the “Selectivity fold (TYK2/JAK2)” value in experiment [2] is reported as above 22371 fold.
With `CCn1ccc(-c2cnc(NC(C)=O)cc2Nc2cc(OCCOC)cc(S(C)(=O)=O)c2)n1` [Example M14, N-(5-(1-ethyl-1H-pyrazol-3-yl)-4-((3-(2-methoxyethoxy)-5-(methylsulfonyl)phenyl)amino)pyridin-2-yl)acetamide], the IC50 in experiment [1] is 0.03 nM; in experiment [2], 9.46 nM; in the experiment on pSTAT5/GM-CSF, above 10000 nM. In addition, in the experiment with pSTAT5/GM-CSF, the “Selectivity fold (TYK2/JAK2)” value is listed as above 1057 fold.
For `CC(=O)Nc1cc(Nc2cc(OC3CCCC3)cc(S(C)(=O)=O)n2)c(-c2ccn(C)n2)cn1` [Example J45, N-(4-((4-(cyclopentyloxy)-6-(methylsulfonyl)pyridin-2-yl)amino)-5-(1-methyl-1H-pyrazol-3-yl)pyridin-2-yl)acetamide] the same measures were 0.028 nM, 0.398 nM, above 10000 nM and above 25125 fold.
`COCCOc1ccc(-c2cnc(NC(C)=O)cc2Nc2cc(C(F)(F)F)cc(S(C)(=O)=O)c2)nc1` [Example D3, N-(5-(2-methoxyethoxy)-4′-((3-(methylsulfonyl)-5-(trifluoromethyl)phenyl)amino)-[2,3′-bipyridin]-6′-yl)acetamide]: the IC50 in experiment [1] was 0.08 nM; in experiment [2] it was 4.8 nM; with pSTAT5/GM-CSF, above 10000 nM. The “Selectivity fold (TYK2/JAK2)” value in experiment [2] is above 2083 fold.
Consider `CC(=O)Nc1cc(Nc2cc(OC(C)C)cc(S(C)(=O)=O)n2)c(-c2ccn(C(C)C)n2)cn1` [Example M23, N-(4-((4-isopropoxy-6-(methylsulfonyl)pyridin-2-yl)amino)-5-(1-isopropyl-1H-pyrazol-3-yl)pyridin-2-yl)acetamide], for which the values for the IC50 (in experiment [1]; in experiment [2]; with pSTAT5/GM-CSF) were 0.031 nM, 1.08 nM and 3750 nM, respectively. Further, the “Selectivity fold (TYK2/JAK2)” value in the experiment with pSTAT5/GM-CSF turned out to be 3471 fold.
For the compound `CC(=O)Nc1cc(Nc2cccc(S(C)(=O)=O)c2)c(-c2ncn(C)n2)cn1` [Example A10, N-(5-(1-methyl-1H-1,2,4-triazol-3-yl)-4-((3-(methylsulfonyl)phenyl)amino)pyridin-2-yl)acetamide], the IC50 in experiment [1] amounted to 2.4 nM; in experiment [2], 3000 nM.
`CC(=O)Nc1cc(Nc2cc(O[C@H]3C[C@H](O)C3)cc(S(C)(=O)=O)c2)c(-c2ccc(C(F)(F)F)cn2)cn1` [Example F5, N-(4′-((3-((trans)-3-hydroxycyclobutoxy)-5-(methylsulfonyl)phenyl)amino)-5-(trifluoromethyl)-[2,3′-bipyridin]-6′-yl)acetamide]: the IC50 in experiment [1] was determined as 0.061 nM.
For the compound `CCn1ccc(-c2cnc(NC(C)=O)cc2Nc2cc(C(F)(F)F)cc(S(C)(=O)=O)c2)n1` [Example M13, N-(5-(1-ethyl-1H-pyrazol-3-yl)-4-((3-(methylsulfonyl)-5-(trifluoromethyl)phenyl)amino)pyridin-2-yl)acetamide], in experiment [1], the IC50 worked out at 0.11 nM.
Consider `CCn1ccc(-c2cnc(NC(C)=O)cc2Nc2cc(OCC3CC3)cc(S(C)(=O)=O)c2)n1` [Example M16, N-(4-((3-(cyclopropylmethoxy)-5-(methylsulfonyl)phenyl)amino)-5-(1-ethyl-1H-pyrazol-3-yl)pyridin-2-yl)acetamide], for which the IC50 in experiment [1] is 0.048 nM.
Still for that read-out and setting: then `CCn1ccc(-c2cnc(NC(C)=O)cc2Nc2cc(C#N)cc(S(C)(=O)=O)c2)n1` [Example M10, N-(4-((3-cyano-5-(methylsulfonyl)phenyl)amino)-5-(1-ethyl-1H-pyrazol-3-yl)pyridin-2-yl)acetamide], with 0.099 nM; and `CC(=O)Nc1cc(Nc2cc(C3(C#N)CC3)cc(S(C)(=O)=O)n2)c(-c2ccc3c(n2)OCC(C)(C)O3)cn1` [Example Q120, N-(4-((4-(1-cyanocyclopropyl)-6-(methylsulfonyl)pyridin-2-yl)amino)-5-(2,2-dimethyl-2,3-dihydro-[1,4]dioxino[2,3-b]pyridin-6-yl)pyridin-2-yl)acetamide], with 0.032 nM; and `CC(=O)Nc1cc(Nc2cc(OCC3COCCO3)cc(S(C)(=O)=O)n2)c(-c2ccc3c(n2)OC(C)(C)CO3)cn1` (stereo not shown) [Example Q27, N-(4-((4-((1,4-dioxan-2-yl)methoxy)-6-(methylsulfonyl)pyridin-2-yl)amino)-5-(3,3-dimethyl-2,3-dihydro-[1,4]dioxino[2,3-b]pyridin-6-yl)pyridin-2-yl)acetamide], with 0.033 nM.
Turning to `CC(=O)Nc1cc(Nc2cc(N3CC[C@@H](OCCO)C3)cc(S(C)(=O)=O)n2)c(-c2ccc3c(n2)OCC(C)(C)O3)cn1` [Example Q59, (R)-N-(5-(2,2-dimethyl-2,3-dihydro-[1,4]dioxino[2,3-b]pyridin-6-yl)-4-((4-(3-(2-hydroxyethoxy)pyrrolidin-1-yl)-6-(methylsulfonyl)pyridin-2-yl)amino)pyridin-2-yl) acetamide], the IC50 in experiment [1] came out at 0.033 nM.
